# Source: ChEMBL document CHEMBL1128710, “Synthesis of cluster galactosides with high affinity for the hepatic asialoglycoprotein receptor” (J Med Chem, 1995)
# Experiment: Affinity towards Asialoglycoprotein receptor using in vitro competition assay for [125I]- ASOR binding to the parenchymal liver cells of rat
row,SMILES,Ki
1,COC(=O)CCCCC(=O)NCC(=O)NC(CO[C@@H]1O[C@H](CO)[C@H](O)[C@H](O)[C@H]1O)(CO[C@@H]1O[C@H](CO)[C@H](O)[C@H](O)[C@H]1O)CO[C@@H]1O[C@H](CO)[C@H](O)[C@H](O)[C@H]1O,> 390 µM
2,COC(=O)CCCCC(=O)NCC(=O)NC(COCOCCOCCOCCOCCO[C@H]1O[C@@H](CO)[C@@H](O)[C@@H](O)[C@@H]1O)(COCOCCOCCOCCOCCO[C@H]1O[C@@H](CO)[C@@H](O)[C@@H](O)[C@@H]1O)COCOCCOCCOCCOCCO[C@H]1O[C@@H](CO)[C@@H](O)[C@@H](O)[C@@H]1O,0.2 µM
3,CC(C)CCC[C@@H](C)[C@H]1CC[C@H]2[C@@H]3CC=C4C[C@@H](OC(=O)CCC(=O)NCC(=O)NC(CO[C@@H]5O[C@H](CO)[C@H](O)[C@H](O)[C@H]5O)(CO[C@@H]5O[C@H](CO)[C@H](O)[C@H](O)[C@H]5O)CO[C@@H]5O[C@H](CO)[C@H](O)[C@H](O)[C@H]5O)CC[C@]4(C)[C@H]3CC[C@]12C,14 µM
4,COC(=O)CCCCC(=O)NCC(=O)NC(COCOCCOCCO[C@@H]1O[C@H](CO)[C@H](O)[C@H](O)[C@H]1O)(COCOCCOCCO[C@@H]1O[C@H](CO)[C@H](O)[C@H](O)[C@H]1O)COCOCCOCCO[C@@H]1O[C@H](CO)[C@H](O)[C@H](O)[C@H]1O,11 µM
5,COC(=O)CCCCC(=O)NCC(=O)NC(COCOCCO[C@@H]1O[C@H](CO)[C@H](O)[C@H](O)[C@H]1O)(COCOCCO[C@@H]1O[C@H](CO)[C@H](O)[C@H](O)[C@H]1O)COCOCCO[C@@H]1O[C@H](CO)[C@H](O)[C@H](O)[C@H]1O,19 µM
6,COC(=O)CCCCC(=O)NCC(=O)NC(COCOCCCO[C@@H]1O[C@H](CO)[C@H](O)[C@H](O)[C@H]1O)(COCOCCCO[C@@H]1O[C@H](CO)[C@H](O)[C@H](O)[C@H]1O)COCOCCCO[C@@H]1O[C@H](CO)[C@H](O)[C@H](O)[C@H]1O,1.2 µM
7,CC(=O)N[C@@H]1[C@@H](O)[C@@H](O)[C@@H](CO)O[C@H]1O,870 µM

# Experiment: Affinity towards Asialoglycoprotein receptor using in vitro competition assay for [125I]- ASOR binding to the parenchymal liver cells of rabbit
# Parameters: species or system Oryctolagus cuniculus
row,SMILES,Ki
1,COC(=O)CCCCC(=O)NCC(=O)NC(CO[C@@H]1O[C@H](CO)[C@H](O)[C@H](O)[C@H]1O)(CO[C@@H]1O[C@H](CO)[C@H](O)[C@H](O)[C@H]1O)CO[C@@H]1O[C@H](CO)[C@H](O)[C@H](O)[C@H]1O,150 µM
